The values that follow come from patent US20210341448A1, “SCREENING METHOD FOR THERAPEUTIC DRUG OR PROPHYLACTIC DRUG FOR TAUOPATHY AND DIAGNOSTIC METHOD FOR TAUOPATHY” (National Center for Geriatrics and Gerontology, priority 2018, published 2021).

Experiment [1] concerns NMDA receptor. Kind of experiment: NMDAR-based sandwich ELISA. The format is binding, mouse.
In experiment [2] the target is T1, NMDAR (Homo sapiens, UniProt Q05586).
T1 construct: endogenous in cells; host or cells: NT2-N neurons differentiated from NTERA-2 cl.D1 [NT2/D1] cells (ATCC CRL-1973)
Kind of experiment: Measurement of calcium influx through NMDAR into NT2-N cells. The format is cell-based. As to conditions: Cal-520, NT2-N cells, antagonist 50 μM. The protocol: Cultured neurons expressing NMDARs retaining physiological functions were prepared by the following procedure to evaluate the NMDAR activation ability of the tau oligomer. The NTERA-2 cl.D1[NT2/D1] cells (ATCC CRL-1973) (hereinafter described as “NT2 cell”), which are derived from a human pluripotent embryonic cancer, were adhesively cultured on 10-cm plastic dish in maintenance culture medium (high glucose DMEM (Sigma-Aldrich, D6429), 10% FBS, 100 U/ml penicillin/streptomycin) under the conditions of 37° C. and 5% CO2 for 3 to 4 days until the confluency stage was attained. The NT2 cells were detached using Accutase (Innovative Cell Technologies, #AT104), were passaged, and were maintained over a period of 50 days. The medium was replaced 3 times a week.
The maintenance-cultured NT2 cells were dispersed in a low attachment petri dish (STAR SDish9015, RIKAKEN CO., LTD.) in a concentration of 1.5×10^6 to 2.5×10^6/dish, suspension-cultured under the conditions of 37° C. and 5% CO2 on a shaker (100 rpm), and 1 day later were induced to differentiate by adding 1 μM of all-trans-retinoic acid (abcam), to thereby form spheroids. 14 days later, the spheroids were collected, seeded in a 10-cm dish coated with 5 μg/ml of poly-D-lysin (PDL) (Sigma-Aldrich)/Laminin (LAM) (iMatrix-511, Nippi Inc.) and adhesively cultured under the conditions of 37° C. and 5% CO2. From the following day, the culture was carried out by adding 3 kinds of cell division inhibitors (10 μM of uridine, 10 μM of floxuridine, and 1 μM of AraC). […]
For analysis, 5 to 10 regions of the visual field of the NT2-N cells positioned in the system were manually set and the fluorescence intensities were recorded for each region, for Cal-520, every 1 minute for 1 hour continuously at excitation wavelength 480 nm/fluorescence emission wavelength 520 nm, and for Fluo-8, every 2 seconds for 5 minutes continuously at excitation wavelength 480 nm/fluorescence emission wavelength 520 nm. […]

Experiment [3] has as its system membrane protein (NMDAR). Kind of experiment: Membrane protein-based sandwich ELISA. The format is binding, mouse. The conditions noted are these: data not shown. The method, then: Pellets of the membrane protein obtained from tau knockout brain by the procedure of the above (7-1) were dissolved in 2% cholic acid or 1% deoxycholate/buffer (50 mM of HEPES, 150 mM of NaCl, pH 7.4), and the solution was centrifuged at 4° C., 150,000×g for 30 minutes to thereby collect the supernatant to use as a membrane protein solution. The obtained membrane protein solution was applied to an ELISA plate (Sumitomo Bakelite Co., Ltd., MS-8596F) and incubated at 4° C. for 60 minutes to thereby coat the plate with the membrane protein. After washing with wash solution (0.004 to 0.008% MNG-3, 50 mM of HEPES, pH 7.4), blocking was done by adding 1% FBS-containing wash solution and incubating at 4° C. for 60 minutes. The solvent of the HT-tau oligomer sample prepared in the above (1-4) was replaced with the wash solution using a protein concentrator (10K MWCO, Pierce, 88526) to thereby prepare a tau oligomer solution of 10^−16 to 10^−6 g/ml. These solutions were applied to the plate and incubated at 4° C. for 15 to 60 minutes. Then, the plate was washed thoroughly with the wash solution and a 5% skim milk-containing wash solution was added, followed by incubating at room temperature for 30 minutes to thereby block the protein. After washing using the wash solution, an anti-HaloTag antibody/wash solution (1:1000 dilution) was added and incubated at room temperature for 30 minutes. Subsequently, the plate was washed with the wash solution, an HRP-labelled secondary antibody/wash solution (Invitrogen, A27036) (1:5000 dilution) was added and incubated at room temperature for 30 minutes. Then, chromogenic reactions were carried out using an Ultra TMB solution (Thermo Fisher Scientific, 34028) to detect the tau oligomers bound to the membrane protein.

Experiment [4] has as its system NMDAR. Kind of experiment: Dot blot of gel-filtered tau oligomer fractions on NMDAR-containing membrane protein. The format is binding, mouse. As to conditions: fractions 7 and 8 compared with fractions 6, 9 and 10. The method, then: The membrane protein solution prepared by the procedure of the above (7-1) was diluted 16-fold with the above wash buffer and was spotted (1.5 μl/spot) on a nitrocellulose membrane. Then, the membrane was thoroughly dried to thereby obtain a nitrocellulose membrane on which the NMDAR-containing membrane protein was immobilized. On the other hand, a reaction solution before ultracentrifugation to be obtained in the process of preparing the HT-tau oligomer sample of the above (1-4) was fractionated using a gel filtration column (Superdex 200 10/300 GL column, GE Healthcare) (flow rate 0.5 ml/min, fractionated by 1 ml) to thereby obtain tau oligomer fractions in various sizes. Each of the obtained tau oligomer fractions was exposed to the nitrocellulose membrane on which the NMDAR-containing membrane protein was immobilized, to thereby detect the tau oligomers adsorbed onto the nitrocellulose membrane in the same manner as the detection procedure of tau oligomer in the above (7-2).

Experiment [5] deals with T2, NMDAR complex (Mus musculus, UniProt P35436+P35438+Q01097).
T2 construct: from tissue
In words: Far-western blot of HT-tau oligomer on NMDAR complex. The format is binding. As to conditions: anti-HaloTag detection. An excerpt:
The membrane protein prepared by the procedure of the above (7-1) was applied to blue native PAGE (NativePAGE™ 3-12% Bis-Tris Protein Gel (Thermo Fisher Scientific, #BN1003BOX); NativePAGE™ Sample Prep Kit (Thermo Fisher Scientific, #BN2008); and NativePAGE™ Running Buffer Kit (Thermo Fisher Scientific, #BN2007) were used) to thereby obtain crude purified NMDAR (complex of a NMDAR4 tetramer and scaffolding proteins such as PSD95, hereinafter simply described as “NMDAR complex”). The NMDAR complex was transferred from the gel after electrophoresis to PVDF membrane (Merck Millipore, #IPVH00010) (transcription buffer: 25 mM of Tris, 192 mM of glycine, 0.1% SDS, 10% Methanol, pH 8.0). […] Subsequently, the membrane was washed, and the tau oligomer adsorbed onto the PVDF membrane was detected by an anti-HaloTag antibody (Promega Corporation, #G928A) (1:1500 dilution) and an HRP-labelled secondary antibody (Jackson Immuno Research, #111-035-144). Additionally, in a replication experiment carried out in parallel, the NMDAR complex was detected by the same procedure without the exposing step to the tau oligomer sample and using an anti-NR1 antibody (Merck Millipore, #MAB363) (1:2000 dilution), instead of the anti-HaloTag antibody.

Experiment [6] concerns NT2-N cells. Kind of experiment: Adhesion activity of tau oligomers to NT2-N cell surface (fluorescence microscopy). The format is cell-based, human. The conditions noted are these: on ice 30 minutes, no membrane permeabilization. The protocol:
Cal-520 AM was loaded to the NT2-N cells prepared in the above (4-1) by the procedure of the above (4-2), exposed to the tau oligomer sample (10 μl/ml) prepared in the above (1-3) and incubated on ice for 30 minutes. Subsequently, the cells were washed 3 times with DPBS(−) (137 mM of NaCl, 2.68 mM of KCl, 1.47 mM of KH2PO4, 8.06 mM of Na2HPO4) and fixed with 4% paraformaldehyde at room temperature for 15 minutes. After thorough washing with DPBS(−) (10 minutes×3 times), blocking was done with 1% BSA and 3% donkey serum/DPBS for 30 minutes. Then, the anti-phosphorylated tau antibody (anti-pTau (paired pS409, pS412, pS413), AnaSpec, #AS-55416) (1:1500 dilution) as the primary antibody was reacted at room temperature for 1 hour, and Alexa594-labelled anti-mouse IgG (Jackson Immuno Research, #711-585-152) (1:1500 dilution) as a secondary antibody was reacted at room temperature for 30 minutes, to thereby carry out immunostaining. The stained cells were observed using a fluorescence microscope (BZ-X710, Keyence Corporation).
The HT-tau oligomer sample prepared in the above (1-4), instead of the tau oligomer sample prepared in the above (1-3), was exposed to the NT2-N cells by the same procedure as in the above (5-1). After thorough washing, fluorescence microscopic observation was carried out.

T2 sequence (P35436 23-1464, other chains not shown): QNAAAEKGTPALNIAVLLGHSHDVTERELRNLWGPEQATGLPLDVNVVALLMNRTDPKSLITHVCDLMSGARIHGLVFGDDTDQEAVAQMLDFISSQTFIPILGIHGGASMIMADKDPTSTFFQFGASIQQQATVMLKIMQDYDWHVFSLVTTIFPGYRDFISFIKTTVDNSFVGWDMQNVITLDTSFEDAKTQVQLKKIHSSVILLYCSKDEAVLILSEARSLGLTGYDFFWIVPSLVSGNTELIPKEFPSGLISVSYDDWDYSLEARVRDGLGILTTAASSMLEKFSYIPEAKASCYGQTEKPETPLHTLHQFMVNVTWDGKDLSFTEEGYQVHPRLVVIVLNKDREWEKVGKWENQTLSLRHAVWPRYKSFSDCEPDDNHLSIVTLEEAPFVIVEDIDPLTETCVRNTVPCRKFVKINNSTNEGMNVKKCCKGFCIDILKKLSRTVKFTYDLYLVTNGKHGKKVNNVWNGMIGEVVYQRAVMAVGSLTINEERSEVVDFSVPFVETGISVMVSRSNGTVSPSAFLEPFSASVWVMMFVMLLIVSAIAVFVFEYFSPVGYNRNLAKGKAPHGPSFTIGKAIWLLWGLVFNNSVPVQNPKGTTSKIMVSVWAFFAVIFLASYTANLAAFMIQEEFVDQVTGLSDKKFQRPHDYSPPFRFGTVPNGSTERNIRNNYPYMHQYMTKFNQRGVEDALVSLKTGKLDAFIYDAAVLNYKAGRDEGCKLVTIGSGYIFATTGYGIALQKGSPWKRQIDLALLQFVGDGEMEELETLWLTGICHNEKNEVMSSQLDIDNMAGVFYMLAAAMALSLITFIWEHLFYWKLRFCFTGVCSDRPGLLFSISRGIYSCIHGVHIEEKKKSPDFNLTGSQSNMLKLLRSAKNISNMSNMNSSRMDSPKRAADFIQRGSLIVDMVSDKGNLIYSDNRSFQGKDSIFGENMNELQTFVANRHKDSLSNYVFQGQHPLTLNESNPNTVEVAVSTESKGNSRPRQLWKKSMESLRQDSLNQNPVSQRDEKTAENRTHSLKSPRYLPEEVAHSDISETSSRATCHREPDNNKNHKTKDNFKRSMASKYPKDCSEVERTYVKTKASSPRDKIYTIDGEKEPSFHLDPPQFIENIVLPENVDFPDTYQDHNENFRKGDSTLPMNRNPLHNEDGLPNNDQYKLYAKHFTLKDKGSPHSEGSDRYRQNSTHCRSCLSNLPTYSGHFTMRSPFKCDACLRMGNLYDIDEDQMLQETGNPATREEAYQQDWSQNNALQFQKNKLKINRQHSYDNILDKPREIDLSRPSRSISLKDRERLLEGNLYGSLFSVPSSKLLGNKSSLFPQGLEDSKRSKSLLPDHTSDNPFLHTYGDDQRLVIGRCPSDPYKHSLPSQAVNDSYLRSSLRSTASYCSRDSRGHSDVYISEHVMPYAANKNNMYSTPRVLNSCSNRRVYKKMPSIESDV
T2 sequence (Q01097 27-1482, other chains not shown): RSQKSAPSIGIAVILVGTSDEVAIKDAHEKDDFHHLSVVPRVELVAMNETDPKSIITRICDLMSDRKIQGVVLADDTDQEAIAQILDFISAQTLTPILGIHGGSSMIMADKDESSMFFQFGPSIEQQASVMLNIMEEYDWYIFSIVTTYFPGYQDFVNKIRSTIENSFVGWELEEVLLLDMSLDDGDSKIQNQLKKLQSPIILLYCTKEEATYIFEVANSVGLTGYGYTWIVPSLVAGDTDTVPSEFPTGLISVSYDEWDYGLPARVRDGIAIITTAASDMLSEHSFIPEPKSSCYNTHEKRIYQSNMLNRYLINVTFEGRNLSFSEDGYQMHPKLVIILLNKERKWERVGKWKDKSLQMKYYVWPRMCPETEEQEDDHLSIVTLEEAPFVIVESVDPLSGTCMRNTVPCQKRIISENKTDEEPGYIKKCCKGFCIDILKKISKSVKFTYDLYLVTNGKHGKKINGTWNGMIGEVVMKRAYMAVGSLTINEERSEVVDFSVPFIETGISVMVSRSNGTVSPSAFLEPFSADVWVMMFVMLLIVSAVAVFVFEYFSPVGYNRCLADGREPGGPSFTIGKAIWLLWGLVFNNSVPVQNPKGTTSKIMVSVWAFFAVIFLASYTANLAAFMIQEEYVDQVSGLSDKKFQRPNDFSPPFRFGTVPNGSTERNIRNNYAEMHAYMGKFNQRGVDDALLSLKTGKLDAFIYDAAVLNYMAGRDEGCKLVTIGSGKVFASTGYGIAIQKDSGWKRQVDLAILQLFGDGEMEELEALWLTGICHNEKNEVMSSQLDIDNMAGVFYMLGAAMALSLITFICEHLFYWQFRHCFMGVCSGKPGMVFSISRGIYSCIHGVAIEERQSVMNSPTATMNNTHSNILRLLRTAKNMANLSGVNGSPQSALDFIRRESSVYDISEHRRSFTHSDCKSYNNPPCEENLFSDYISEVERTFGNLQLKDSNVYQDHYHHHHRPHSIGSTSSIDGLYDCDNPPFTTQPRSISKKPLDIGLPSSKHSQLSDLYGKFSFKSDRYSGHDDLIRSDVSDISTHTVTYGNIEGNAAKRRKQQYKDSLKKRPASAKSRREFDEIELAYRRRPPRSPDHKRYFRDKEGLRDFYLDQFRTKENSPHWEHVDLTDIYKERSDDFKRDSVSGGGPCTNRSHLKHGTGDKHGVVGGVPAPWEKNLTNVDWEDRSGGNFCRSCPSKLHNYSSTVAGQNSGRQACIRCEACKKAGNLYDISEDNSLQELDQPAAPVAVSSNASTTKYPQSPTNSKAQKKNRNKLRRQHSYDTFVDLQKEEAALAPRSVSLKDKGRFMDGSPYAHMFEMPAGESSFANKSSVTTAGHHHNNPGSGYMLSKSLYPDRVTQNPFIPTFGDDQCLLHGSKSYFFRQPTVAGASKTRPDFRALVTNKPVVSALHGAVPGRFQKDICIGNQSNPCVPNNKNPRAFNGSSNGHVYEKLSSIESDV

Turning to “conantokin-G: a peptide blocking a ligand-binding site of the NMDA receptor (GEEELQENQELIREKSN) [reference compound]”, the “effect on binding of the tau oligomer to the NMDA receptor” value in experiment [1] is “inhibited”.
With `NC(CCCP(=O)(O)O)C(=O)O` (stereo not shown) [APS, 2-amino-5-phosphonopentanoic acid, reference compound], in experiment [2], the “increase of the intracellular calcium concentration induced by the tau oligomer, in presence of antagonist” value is on record as “lost”.
For the molecule `N[C@@H](CCC(=O)O)C(=O)O` [glutamate, reference compound], the “binding of the tau oligomer at low concentrations in the presence of NMDAR ligand” value in experiment [3] is “reduced”.
As for “LMW TauO: comparatively low-molecular-weight tau oligomers contained in gel filtration fractions 7 and 8”, the “binding activity to NMDAR” value in experiment [4] is given as “strong binding activity”.
Turning to `NCC(=O)O` [glycine, reference compound], the “binding of the tau oligomer at low concentrations in the presence of NMDAR ligand” value in experiment [3] is “reduced”.
As to “HT-tau oligomer: tau oligomer prepared from tau monomer and HaloTag-fused tau monomer mixed in a ratio of 4:1”, in experiment [5], the “interaction with NMDAR complex (around 800 kDa and 1100 kDa)” value is “interacted with both of them”. For the same molecule, the “adhesion to the cell surface” value in experiment [6] is given as “patchy pattern of fluorescence was observed”.
